Laboratory results published in patent publication US11407736B2 (priority 2019, dated 2022).
Read-outs that look alike come from different tables or passages of the source.

What was measured:
RIPK1 = RIPK1 (Homo sapiens (Human), UniProt Q13546); test: RIPK1 ADP-Glo biochemical kinase assay
Protocol: The final reaction volume was 5.0ul.
Adding 5 μl of ADP-Glo™ terminated the reaction.

U937 cells = test: U937 cell necroptosis assay (TNFa + zVAD, CellTiter-Glo); format: cell-based, human; conditions: Homo sapiens
Protocol: (§1) In this example, U937 and L929 cells were exposed to compounds of the present disclosure and a cell necroptosis assay was conducted to evaluate the compounds' activity against human RIP1 and murine RIP1.
(§2) U937 and L929 cells were obtained from the American Type Culture Collection (Manassa, Va., USA). Both cells were maintained in logarithmic growth phase in complete RPMI 1640 media (Sigma, ST Louis, Mo., USA) supplemented with 10% fetal bovine serum (Sigma, ST Louis, Mo., USA) at 37° C. with 5% CO2. For necroptosis assay, L929 cells were plated for 18 h in 100 μL/well medium at 10K cells/well in Costar 96-well black clear-bottom plates (Fisher Scientific, Hampton, N.H., USA); U937 cells were plated on the day of the assay in 50 4/well medium containing 60 uM zVAD-fink (Lonza, Basel, Switzerland) at 50K cells/well. Medium from L929 cells were removed from the 96-well plates and replaced with 50 μL/well new medium containing 40 uM zVAD-fink. Each compound of the present disclosure evaluated in this example was serially diluted in DMSO from 2.5 mM in 4-fold dilutions, and then diluted 1:125 in complete medium. 50 μL/well 2× of the compound was then added to the cells in the plates. The cells were pre-incubated with the compound for 1 hour at 37° C. with 5% CO2 and before addition of 10 μL/well 1 1×TNFa (Peprotech, Rocky Hill, N.J., USA) to give a final concentration of 2 ng/mL for TNFa. The relative amount of necroptosis cells was determined by luminescent using a Wallac Victor2 Luminometer (PerkinElmer, Waltham, Mass., USA) and a CellTiter-Glo® Luminescent Cell Viability Reagent Assay (Promega, Madison, Wis., USA) added per manufacturer instructions after 18 hours of TNFa stimulation at 37° C. with 5% CO2. This example establishes that embodiments of the compounds described herein have unexpectedly potent activity against human RIP1 and murine RIP1, which allows their assessment in in vivo mouse models of disease.

L929 cells = test: L929 cell necroptosis assay (TNFa + zVAD, CellTiter-Glo); format: cell-based, murine; conditions: Mus musculus, L929, L929 cells, TNFa + zVAD; read-out: L929-CTG-recovery, L929, TNFa + zVAD (IC50)
Protocol: as §1
as §2, with “The cells were pre-incubated with the compound for 1 hour at 37° C. with 5% CO2 and before addition of 10 μL/well 1 1×TNFa (Peprotech, Rocky Hill, N.J., USA) to give a final concentration of 2 ng/mL for TNFa.” left out, “CO2.” for “CO2. This example establishes that embodiments of the compounds described herein have unexpectedly potent activity against human RIP1 and murine RIP1, which allows their assessment in in vivo mouse models of disease.”

[1] = read-out: RIPK1 ADP-Glo Kinase (IC50)
[2] = U-937, U937 cells, TNFa + zVAD, read-out: U937 Zvad TNF CTG Recovery, U937, TNFa + zVAD (IC50)
[3] = U-937, read-out: U937 Zvad TNF CTG Recovery, U937, TNFa + zVAD (IC50), U937 cells, TNFa + zVAD

Sequence of RIPK1 (Q13546 whole entry, species assumed): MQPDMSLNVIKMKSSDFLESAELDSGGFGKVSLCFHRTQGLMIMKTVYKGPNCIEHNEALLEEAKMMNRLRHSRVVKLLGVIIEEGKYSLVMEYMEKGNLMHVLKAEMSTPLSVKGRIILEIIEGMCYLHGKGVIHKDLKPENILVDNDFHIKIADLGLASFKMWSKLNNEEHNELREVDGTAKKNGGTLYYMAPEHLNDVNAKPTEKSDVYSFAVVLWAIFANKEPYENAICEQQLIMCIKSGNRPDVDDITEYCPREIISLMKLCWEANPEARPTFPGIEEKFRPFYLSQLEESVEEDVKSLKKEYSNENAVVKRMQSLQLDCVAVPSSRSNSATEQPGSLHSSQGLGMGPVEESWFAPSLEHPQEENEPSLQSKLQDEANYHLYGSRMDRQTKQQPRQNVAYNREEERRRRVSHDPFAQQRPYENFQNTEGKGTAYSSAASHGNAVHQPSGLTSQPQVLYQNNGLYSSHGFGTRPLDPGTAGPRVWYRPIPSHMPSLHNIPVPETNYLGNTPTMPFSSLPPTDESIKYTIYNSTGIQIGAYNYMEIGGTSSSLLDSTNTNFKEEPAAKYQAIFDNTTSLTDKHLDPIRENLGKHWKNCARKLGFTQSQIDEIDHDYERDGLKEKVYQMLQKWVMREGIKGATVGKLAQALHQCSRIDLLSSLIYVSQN

IC50 (RIPK1; [1]) | SMILES | IC50 (U937 cells; [2]) | IC50 (RIPK1) | IC50 (U937 cells; [3]) | IC50 (L929 cells)
33.4 nM | CN1C(=O)[C@@H](NC(=O)c2n[nH]c(Cc3ccccc3)n2)COc2ccc(CCC(N)=O)cc21 [Compound I-31, (S)—N-(7-(3-amino-3-oxopropyl)-5-methyl-4-oxo-2,3,4,5-tetrahydrobenzo[b][1,4]oxazepin-3-yl)-5-benzyl-1H-1,2,4-triazole-3-carboxamide] | 33.7 nM |  |  | 
 | CN1C(=O)[C@@H](NC(=O)c2cc(Oc3ccccc3)ccn2)COc2cc(N3CCC4(CCOCC4)CC3)ccc21 [II-26, (S)—N-(5-methyl-4-oxo-8-(3-oxa-9-azaspiro[5.5]undecan-9-yl)-2,3,4,5-tetrahydrobenzo[b][1,4]oxazepin-3-yl)-4-phenoxypicolinamide] | 510 nM | 193 nM |  | 
12400 nM | CN1C(=O)[C@@H](NC(=O)c2ccc(Oc3ccccc3)cn2)COc2ccc(C#CC(C)(C)O)cc21 [Compound I-121, (S)—N-(7-(3-hydroxy-3-methylbut-1-yn-1-yl)-5-methyl-4-oxo-2,3,4,5-tetrahydrobenzo[b][1,4]oxazepin-3-yl)-5-phenoxypicolinamide] | 30300 nM |  |  | 
518 nM | CN1C(=O)[C@@H](NC(=O)c2cc(Oc3ccc(C#N)cc3)ccn2)COc2cc(C#CC(C)(C)O)ccc21 [II-17, (S)-4-(4-cyanophenoxy)-N-(8-(3-hydroxy-3-methylbut-1-yn-1-yl)-5-methyl-4-oxo-2,3,4,5-tetrahydrobenzo[b][1,4]oxazepin-3-yl)picolinamide] | 1490 nM |  |  | 
54.4 nM | COc1ccnc(C(=O)N[C@H]2COc3ccc(C#CC4(O)COC4)cc3N(C)C2=O)c1 [Compound I-162, (S)—N-(7-((3-hydroxyoxetan-3-yl)ethynyl)-5-methyl-4-oxo-2,3,4,5-tetrahydrobenzo[b][1,4]oxazepin-3-yl)-4-methoxypicolinamide] | 1660 nM |  |  | 
36.2 nM | CN1C(=O)[C@@H](NC(=O)c2cc(Oc3ccccc3)ccn2)COc2ccc(C#CC(=O)O)cc21 [Compound I-161, (S)-3-(5-methyl-4-oxo-3-(4-phenoxypicolinamido)-2,3,4,5-tetrahydrobenzo[b][1,4]oxazepin-7-yl)propiolic acid] | 45.5 nM |  |  | 
12300 nM | CN1C(=O)[C@@H](NC(=O)c2ccc(Oc3ccc(F)cc3)cn2)COc2ccc(C#CC(C)(C)O)cc21 [Compound I-122, (S)-5-(4-fluorophenoxy)-N-(7-(3-hydroxy-3-methylbut-1-yn-1-yl)-5-methyl-4-oxo-2,3,4,5-tetrahydrobenzo[b][1,4]oxazepin-3-yl)picolinamide] | 40400 nM |  |  | 
56.8 nM | COc1cc2ncnc(NC(=O)CCc3ccc4c(c3)N(C)C(=O)[C@@H](NC(=O)c3n[nH]c(Cc5ccccc5)n3)CO4)c2cc1OC [Compound I-4, (S)-5-benzyl-N-(7-(3-((6,7-dimethoxyquinazolin-4-yl)amino)-3-oxopropyl)-5-methyl-4-oxo-2,3,4,5-tetrahydrobenzo[b][1,4]oxazepin-3-yl)-1H-1,2,4-triazole-3-carboxamide] | 29.3 nM |  |  | 
 | CN1C(=O)[C@@H](NC(=O)c2cc(Oc3ccccc3)ccn2)COc2ccc(CN3CC4(CCOCC4)C3)cc21 [Compound I-150, (S)—N-(7-((7-oxa-2-azaspiro[3.5]nonan-2-yl)methyl)-5-methyl-4-oxo-2,3,4,5-tetrahydrobenzo[b][1,4]oxazepin-3-yl)-4-phenoxypicolinamide] | 83.1 nM | 44.7 nM |  | 
173 nM | CN1C(=O)[C@@H](NC(=O)c2cc(Oc3ccc(F)cc3)ccn2)COc2ccc(C#CC3(O)CCNCC3)cc21 [Compound I-133, (S)-4-(4-fluorophenoxy)-N-(7-((4-hydroxypiperidin-4-yl)ethynyl)-5-methyl-4-oxo-2,3,4,5-tetrahydrobenzo[b][1,4]oxazepin-3-yl)picolinamide] | 492 nM |  |  | 
189 nM | CN1C(=O)[C@@H](NC(=O)c2n[nH]c(Cc3ccccc3)n2)COc2ccc(CCC(=O)O)cc21 [Compound I-9, (S)-3-(3-(5-benzyl-1H-1,2,4-triazole-3-carboxamido)-5-methyl-4-oxo-2,3,4,5-tetrahydrobenzo[b][1,4]oxazepin-7-yl)propanoic acid] | 362 nM |  |  | 
15.7 nM | CN1C(=O)[C@@H](NC(=O)c2n[nH]c(Cc3ccccc3)n2)COc2ccc(CCC(=O)Nc3ccc4[nH]ncc4c3)cc21 [Compound I-2, (S)—N-(7-(3-((1H-indazol-5-yl)amino)-3-oxopropyl)-5-methyl-4-oxo-2,3,4,5-tetrahydrobenzo[b][1,4]oxazepin-3-yl)-5-benzyl-1H-1,2,4-triazole-3-carboxamide] | 31.9 nM |  |  | 
158 nM | CN1C(=O)[C@@H](NC(=O)c2n[nH]c(Cc3ccc(F)cc3F)n2)COc2ccc(CCC(=O)NC3CC3)cc21 [Compound I-27, (S)—N-(7-(3-(cyclopropylamino)-3-oxopropyl)-5-methyl-4-oxo-2,3,4,5-tetrahydrobenzo[b][1,4]oxazepin-3-yl)-5-(2,4-difluorobenzyl)-1H-1,2,4-triazole-3-carboxamide] | 69.7 nM |  |  | 
 | CN1C(=O)[C@H](NC(=O)c2cc(Oc3ccccc3)ccn2)COc2ccc(C#CC(C)(C)O)cc21 [Compound I-113, (R)—N-(7-(3-hydroxy-3-methylbut-1-yn-1-yl)-5-methyl-4-oxo-2,3,4,5-tetrahydrobenzo[b][1,4]oxazepin-3-yl)-4-phenoxypicolinamide] | 31.5 nM |  |  | 2340 nM
 | CN1C(=O)[C@@H](NC(=O)c2cc(Oc3ccccc3)ccn2)COc2ccc(C#CC3(O)COC3)cc21 [Compound I-110, (S)—N-(7-((3-hydroxyoxetan-3-yl)ethynyl)-5-methyl-4-oxo-2,3,4,5-tetrahydrobenzo[b][1,4]oxazepin-3-yl)-4-phenoxypicolinamide] | 0.4 nM |  |  | 18.8 nM
53.9 nM | CN1C(=O)[C@@H](NC(=O)c2n[nH]c(Cc3ccccc3)n2)COc2ccc(CCC(=O)NC3CC3)cc21 [Compound I-13, (S)-5-benzyl-N-(7-(3-(cyclopropylamino)-3-oxopropyl)-5-methyl-4-oxo-2,3,4,5-tetrahydrobenzo[b][1,4]oxazepin-3-yl)-1H-1,2,4-triazole-3-carboxamide] | 13.8 nM |  |  | 

SMILES | IC50 (RIPK1; [1]) | IC50 (U937 cells; [2]) | IC50 (RIPK1) | IC50 (U937 cells; [3]) | IC50 (L929 cells)
CN1C(=O)[C@@H](NC(=O)c2n[nH]c(Cc3ccccc3)n2)COc2ccc(C#CC3(O)CCC3)cc21 [Compound I-51, (S)-5-benzyl-N-(7-((1-hydroxycyclobutyl)ethynyl)-5-methyl-4-oxo-2,3,4,5-tetrahydrobenzo[b][1,4]oxazepin-3-yl)-1H-1,2,4-triazole-3-carboxamide] | 31.7 nM |  |  |  | 
CN1C(=O)[C@@H](NC(=O)c2cc(Oc3ccccc3)ccn2)COc2ccc(C#CC3(O)CS(=O)(=O)C3)cc21 [Compound I-209, (S)—N-(7-((3-hydroxy-1,1-dioxidothietan-3-yl)ethynyl)-5-methyl-4-oxo-2,3,4,5-tetrahydrobenzo[b][1,4]oxazepin-3-yl)-4-phenoxypicolinamide] | 106 nM |  |  | 59.5 nM | 
COc1ccnc(C(=O)N[C@H]2COc3ccc(C#CC(C)(C)O)cc3N(C)C2=O)c1 [Compound I-163, (S)—N-(7-(3-hydroxy-3-methylbut-1-yn-1-yl)-5-methyl-4-oxo-2,3,4,5-tetrahydrobenzo[b][1,4]oxazepin-3-yl)-4-methoxypicolinamide] | 509 nM |  |  | 3320 nM | 
